Assays:
EGFR_L858R/T790M/C797S = target: T1, EGFR_L858R/T790M/C797S (Homo sapiens, UniProt P00533, C797S/L858R/T790M); test: In vitro biochemical kinase assay (33P-ATP filter-binding, Reaction Biology)
T1 construct: Reaction Biology Corporation (contract assay provider)
Procedure: The biochemical kinase assay was performed at Reaction Biology Corporation (www.reactionbiology.com, Malvern, Pa.) following procedures described in the reference (Anastassiadis, T, et al, Nature Biotechnology, 2011, 29, 1039). Base Reaction buffer includes 20 mM Hepes (pH 7.5), 10 mM MgCl2, 1 mM EGTA, 0.02% Brij35, 0.02 mg/ml BSA, 0.1 mM Na3VO4, 2 mM DTT and 1% DMSO. Required cofactors are added individually to each kinase reaction. Testing compounds were dissolved in 100% DMSO to specific concentration. The serial dilution was conducted by Integra Viaflo Assist in DMSO. Compounds in 100% DMSO are into the kinase reaction mixture by Acoustic technology (Echo550; nanoliter range), incubate for 20 min at room temperature, followed by ^33P-ATP and incubation for 2 hours at room temperature. Radioactivity was then detected by filter-binding method. Kinase activity data were expressed as the percent remaining kinase activity in test samples compared to vehicle (dimethyl sulfoxide) reactions. IC50 values and curve fits were obtained using Prism (GraphPad Software).

[1] = target: Ba/F3_EGFR_del19/T790M/C797S cell (Homo sapiens, UniProt P00533, T790M/C797S, cells depend on it, form not given); test: BaF3 cell proliferation assay (CelltiterGlo, 72 hr); assay type: cell-based; conditions: 72 hr incubation; read-out: IC50 (nM, Ba/F3_EGFR_del19/T790M/C797S cell proliferation)
Procedure: (§1) The BaF3 cell proliferation assay was performed at Pharmaron (www.pharmaron.com, Beijing, China). The Ba/F3_WT and Ba/F3_Del19/T790M/C797S cell lines were maintained in 1640 medium containing 10% FBS, 1*PS and 1*Glutamax. Only cells with viability greater than 90% are used for assays. Dispense 30 μl of cell suspension at 700/well into 384 well microplate, add 30 nl compound solution into 384 cell plate by Echo, cells were incubated for 72 hr in 37° C./5% CO2 incubator, add 30 μl reagent CelltiterGlo assay kit (CTG, Promega) per well and shake plates, incubate the plate (avoiding light) at 37° C./5% CO2 for 30 min. and read the luminescence by Envision. The luminescence values were converted to % Inhibition. Calculate IC50 by fitting % inhibition values and log of compound concentrations to nonlinear regression (dose response−variable slope) with Graphpad 5.0.
(§2) Y=Bottom+(Top−Bottom)/(1+10^((Log IC50−X)*HillSlope))
(§3) X: log of inhibitor concentration; Y: % Inhibition.

Ba/F3_WT cell = test: as above; assay type: cell-based; conditions: Mus musculus, 72 hr incubation
Procedure: as §1, §2, §3

T1 sequence (P00533 25-1210 T790M/C797S/L858R): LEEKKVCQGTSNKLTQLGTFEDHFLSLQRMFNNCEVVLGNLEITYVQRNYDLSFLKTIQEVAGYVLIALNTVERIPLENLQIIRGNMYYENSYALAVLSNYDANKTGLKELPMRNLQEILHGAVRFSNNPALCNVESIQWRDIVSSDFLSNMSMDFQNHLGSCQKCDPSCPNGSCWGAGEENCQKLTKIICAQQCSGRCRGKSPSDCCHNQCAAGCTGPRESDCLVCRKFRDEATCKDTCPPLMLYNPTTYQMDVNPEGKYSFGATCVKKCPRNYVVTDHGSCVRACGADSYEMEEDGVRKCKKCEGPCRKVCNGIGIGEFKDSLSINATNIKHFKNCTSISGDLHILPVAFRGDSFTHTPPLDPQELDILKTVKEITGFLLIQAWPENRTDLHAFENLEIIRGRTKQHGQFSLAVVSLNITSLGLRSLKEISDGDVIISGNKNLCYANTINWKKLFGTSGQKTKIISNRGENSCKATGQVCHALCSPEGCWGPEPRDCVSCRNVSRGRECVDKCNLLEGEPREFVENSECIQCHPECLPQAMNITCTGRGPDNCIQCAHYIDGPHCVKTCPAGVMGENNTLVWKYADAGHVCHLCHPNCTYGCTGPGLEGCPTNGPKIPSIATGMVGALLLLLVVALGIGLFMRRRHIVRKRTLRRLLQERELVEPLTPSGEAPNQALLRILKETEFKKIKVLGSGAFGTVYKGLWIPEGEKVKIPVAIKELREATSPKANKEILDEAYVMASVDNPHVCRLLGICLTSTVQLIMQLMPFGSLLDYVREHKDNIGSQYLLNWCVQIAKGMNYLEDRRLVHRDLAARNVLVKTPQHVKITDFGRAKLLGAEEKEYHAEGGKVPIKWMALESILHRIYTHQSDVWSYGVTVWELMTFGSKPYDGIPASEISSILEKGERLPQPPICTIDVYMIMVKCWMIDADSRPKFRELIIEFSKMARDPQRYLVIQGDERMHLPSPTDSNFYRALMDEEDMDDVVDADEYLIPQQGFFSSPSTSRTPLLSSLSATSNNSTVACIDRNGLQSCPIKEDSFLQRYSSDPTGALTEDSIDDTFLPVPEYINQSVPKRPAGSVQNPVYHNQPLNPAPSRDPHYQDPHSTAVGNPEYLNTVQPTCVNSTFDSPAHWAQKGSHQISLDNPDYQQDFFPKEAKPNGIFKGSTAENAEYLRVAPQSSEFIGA
Chain of Ba/F3_EGFR_del19/T790M/C797S cell (P00533 with tags, fused parts or gaps DEL746-750/T790M/C797S, form open): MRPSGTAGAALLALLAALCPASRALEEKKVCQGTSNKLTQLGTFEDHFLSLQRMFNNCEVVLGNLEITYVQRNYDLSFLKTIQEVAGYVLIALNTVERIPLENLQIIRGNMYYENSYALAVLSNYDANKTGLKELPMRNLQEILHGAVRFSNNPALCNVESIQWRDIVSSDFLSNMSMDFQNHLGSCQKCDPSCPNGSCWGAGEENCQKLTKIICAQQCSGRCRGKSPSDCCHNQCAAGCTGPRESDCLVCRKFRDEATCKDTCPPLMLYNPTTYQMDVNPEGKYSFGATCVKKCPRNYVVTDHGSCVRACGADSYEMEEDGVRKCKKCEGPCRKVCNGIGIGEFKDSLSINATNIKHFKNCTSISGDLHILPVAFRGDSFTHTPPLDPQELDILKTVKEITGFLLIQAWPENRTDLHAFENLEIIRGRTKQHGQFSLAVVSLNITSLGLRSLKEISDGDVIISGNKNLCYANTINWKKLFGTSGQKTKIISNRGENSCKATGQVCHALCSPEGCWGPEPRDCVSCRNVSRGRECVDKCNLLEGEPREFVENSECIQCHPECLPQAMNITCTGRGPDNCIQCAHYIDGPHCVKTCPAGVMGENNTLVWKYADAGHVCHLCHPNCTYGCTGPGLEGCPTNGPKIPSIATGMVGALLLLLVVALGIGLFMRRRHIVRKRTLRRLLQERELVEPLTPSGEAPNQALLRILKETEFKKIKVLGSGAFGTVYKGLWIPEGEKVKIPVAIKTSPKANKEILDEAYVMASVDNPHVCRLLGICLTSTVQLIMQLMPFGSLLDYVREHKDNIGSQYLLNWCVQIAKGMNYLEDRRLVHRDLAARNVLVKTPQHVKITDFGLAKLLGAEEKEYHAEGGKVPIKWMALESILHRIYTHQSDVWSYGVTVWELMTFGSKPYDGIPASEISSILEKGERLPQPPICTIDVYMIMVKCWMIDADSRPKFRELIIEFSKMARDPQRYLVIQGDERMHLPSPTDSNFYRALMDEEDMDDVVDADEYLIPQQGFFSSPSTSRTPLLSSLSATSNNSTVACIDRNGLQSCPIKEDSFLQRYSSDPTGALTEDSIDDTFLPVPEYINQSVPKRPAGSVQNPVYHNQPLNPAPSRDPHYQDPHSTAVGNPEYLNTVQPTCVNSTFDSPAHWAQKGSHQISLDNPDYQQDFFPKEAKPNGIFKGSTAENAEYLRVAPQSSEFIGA

SMILES | IC50 (EGFR_L858R/T790M/C797S) [nM] | GI50 [1] [nM] | IC50 (Ba/F3_WT cell) [nM]
COc1cc(N2CCC(N3CCN(C)CC3)CC2)c2cc1Nc1ncc(Cl)c(n1)Nc1ccc(cc1S(=O)(=O)C(C)C)OCCCCC2 [Compound A26, 3^5-chloro-5^2-(isopropylsulfonyl)-16-methoxy-1^4-(4-(4-methylpiperazin-1-yl)piperidin-1-yl)-6-oxa-2,4-diaza-3(2,4)-pyrimidina-1(1,3),5(1,4)-dibenzenacycloundecaphane] | 250 | 1110 | 1790
COc1cc(N2CCN(C)CC2)c2cc1Nc1ncc(Cl)c(n1)Nc1ccc(cc1N(C)S(C)(=O)=O)OCCCC2 [Compound A4, N-(3^5-chloro-1^6-methoxy-1^4-(4-methylpiperazin-1-yl)-6-oxa-2,4-diaza-3(2,4)-pyrimidina-1(1,3),5(1,4)-dibenzenacyclodecaphane-5^2-yl)-N-methylmethanesulfonamide] | 46.5 | 252 | 3320
COc1cc(N2CCN(C)CC2)c2cc1Nc1ncc(Cl)c(n1)Nc1ccc(cc1P(C)(C)=O)OCCCCC2 [Compound A18, (3^5-chloro-1^6-methoxy-1^4-(4-methylpiperazin-1-yl)-6-oxa-2,4-diaza-3(2,4)-pyrimidina-1(1,3),5(1,4)-dibenzenacycloundecaphane-5^2-yl)dimethylphosphine oxide] | 145 | 520 | > 10000
COc1cc(N2CCC(N3CCOCC3)CC2)c2cc1Nc1ncc(Cl)c(n1)Nc1ccc(cc1N(C)S(C)(=O)=O)OCCCCC2 [Compound A32, N-(3^5-chloro-1^6-methoxy-1^4-(4-morpholinopiperidin-1-yl)-6-oxa-2,4-diaza-3(2,4)-pyrimidina-1(1,3),5(1,4)-dibenzenacycloundecaphane-5^2-yl)-N-methylmethanesulfonamide] | 0.6 | 106 | 4840
COc1cc(N2CCN(C3CCN(C)CC3)CC2)c2cc1Nc1ncc(Cl)c(n1)Nc1ccc(cc1N(C)S(C)(=O)=O)OCCCCC2 [Compound A20, N-(3^5-chloro-1^6-methoxy-1^4-(4-(1-methylpiperidin-4-yl)piperazin-1-yl)-6-oxa-2,4-diaza-3(2,4)-pyrimidina-1(1,3),5(1,4)-dibenzenacycloundecaphane-5^2-yl)-N-methylmethanesulfonamide] | 2.6 | 89 | 1450
COc1cc(N2CCN(C)CC2)c2cc1Nc1ncc(Cl)c(n1)Nc1ccc(cc1N(C)S(C)(=O)=O)OCCCCCC2 [Compound A14, N-(3^5-chloro-1^6-methoxy-1^4-(4-methylpiperazin-1-yl)-6-oxa-2,4-diaza-3(2,4)-pyrimidina-1(1,3),5(1,4)-dibenzenacyclododecaphane-5^2-yl)-N-methylmethanesulfonamide] | 16.7 | 897 | 2960
COc1cc(N2CCC(N3CCN(C)CC3)CC2)c2cc1Nc1ncc(Br)c(n1)Nc1ccc(cc1P(C)(C)=O)OCCCCCC2 [Compound A34, (3^5-bromo-1^6-methoxy-1^4-(4-(4-methylpiperazin-1-yl)piperidin-1-yl)-6-oxa-2,4-diaza-3(2,4)-pyrimidina-1(1,3),5(1,4)-dibenzenacyclododecaphane-5^2-yl)dimethylphosphine oxide] | 2 | 142 | 3820
CCN(c1cc2ccc1Nc1nc(ncc1Cl)Nc1cc(c(N3CCN(C)CC3)cc1OC)CCCCCO2)S(C)(=O)=O [Compound A10, N-(3^5-chloro-1^6-methoxy-1^4-(4-methylpiperazin-1-yl)-6-oxa-2,4-diaza-3(2,4)-pyrimidina-1(1,3),5(1,4)-dibenzenacycloundecaphane-5^2-yl)-N-ethylmethanesulfonamide] | 0.5 | 125 | 1840
COc1cc(N2CCN(C)CC2)c2cc1Nc1ncc(Br)c(n1)Nc1ccc(cc1P(C)(C)=O)OCCCC2 [Compound A35, (3^5-bromo-1^6-methoxy-1^4-(4-methylpiperazin-1-yl)-6-oxa-2,4-diaza-3(2,4)-pyrimidina-1(1,3),5(1,4)-dibenzenacyclodecaphane-5^2-yl)dimethylphosphine oxide] | 289 | 1050 | 2240
CCS(=O)(=O)N(C)c1cc2ccc1Nc1nc(ncc1Cl)Nc1cc(c(N3CCN(C)CC3)cc1OC)CCCCCO2 [Compound A8, N-(3^5-chloro-1^6-methoxy-1^4-(4-methylpiperazin-1-yl)-6-oxa-2,4-diaza-3(2,4)-pyrimidina-1(1,3),5(1,4)-dibenzenacycloundecaphane-5^2-yl)-N-methylethanesulfonamide] | 2.7 | 538 | 3430
COc1cc(N2C[C@H]3CN(C)C[C@H]3C2)c2cc1Nc1ncc(Cl)c(n1)Nc1ccc(cc1N(C)S(C)(=O)=O)OCCCCC2 [Compound A28, N-(3^5-chloro-1^6-methoxy-1^4-((cis-3,6)-5-methylhexahydropyrrolo[3,4-c]pyrrol-2(1H)-yl)-6-oxa-2,4-diaza-3(2,4)-pyrimidina-1(1,3),5(1,4)-dibenzenacycloundecaphane-5^2-yl)-N-methylmethanesulfonamide] | 1.4 | 194 | 2970
CCN(c1cc2ccc1Nc1nc(ncc1Cl)Nc1cc(c(N3CCN(C)CC3)cc1OC)CCCCCCO2)S(C)(=O)=O [Compound A23, N-(3^5-chloro-1^6-methoxy-1^4-(4-methylpiperazin-1-yl)-6-oxa-2,4-diaza-3(2,4)-pyrimidina-1(1,3),5(1,4)-dibenzenacyclododecaphane-5^2-yl)-N-ethylmethanesulfonamide] | 2.6 | 157 | 2660
COc1cc(N2CCN(C(C)=O)CC2)c2cc1Nc1ncc(Cl)c(n1)Nc1ccc(cc1N(C)S(C)(=O)=O)OCCCCC2 [Compound A31, N-(1^4-(4-acetylpiperazin-1-yl)-3^5-chloro-1^6-methoxy-6-oxa-2,4-diaza-3(2,4)-pyrimidina-1(1,3),5(1,4)-dibenzenacycloundecaphane-5^2-yl)-N-methylmethanesulfonamide] | 12.7 | 154 | > 10000
COc1cc(N2CCC(N(C)C)C2)c2cc1Nc1ncc(Cl)c(n1)Nc1ccc(cc1N(C)S(C)(=O)=O)OCCCCC2 (stereo not drawn) [Compound A27, N-(3^5-chloro-1^4-(3-(dimethylamino)pyrrolidin-1-yl)-1^6-methoxy-6-oxa-2,4-diaza-3(2,4)-pyrimidina-1(1,3),5(1,4)-dibenzenacycloundecaphane-5^2-yl)-N-methylmethanesulfonamide] | 2.3 | 330 | 3400
COc1cc(N2CCC(N3CCN(C)CC3)CC2)c2cc1Nc1ncc(Cl)c(n1)Nc1ccc(cc1N(C)S(C)(=O)=O)OCCCCCC2 [Compound A15, N-(3^5-chloro-1^6-methoxy-1^4-(4-(4-methylpiperazin-1-yl)piperidin-1-yl)-6-oxa-2,4-diaza-3(2,4)-pyrimidina-1(1,3),5(1,4)-dibenzenacyclododecaphane-5^2-yl)-N-methylmethanesulfonamide] | 0.5 | 195 | 2660

From patent publication US20230159556A1, “NOVEL PROTEIN KINASE INHIBITORS” (TENOVA PHARMACEUTICALS INC., priority 2020, published 2023)
